Measured values as given in patent US6160008A, “Pharmaceutical compositions comprising S-alkylisothiouronium derivatives” (priority 1996, dated 2000).

Assay: Biochemical indices of mice blood serum, chronic experiment (Table 9)
Format: in vivo, F1 (C57B1×CBA)
Settings: for Body mass / Glucose / Total cholestrol / Total protein: 100 mg/kg i.v.; for Total protein: in g/L (unit assumed)
Experimental: The effect of S-ethylisothiouronium diethylphosphate on body constituents was estimated in chronic and acute experiments. These experiments were conducted on F1 (C57B1×CBA) line mice and biochemical tests were made after a single administration of S-ethylisothiouronium diethylphosphate, injected intravenously at doses of 100 mg/kg (in the chronic experiment) and 500 mg/kg (in the acute experiment).
In the acute experiment, blood was taken 30, 60 and 75 minutes after the administration of the medicine. In the chronic experiment (which lasted 30 days), blood was daily examined 1 hour after the injection. Terms of the study were 1, 7, 14, and 21 days. The concentrations of total protein, total cholesterol, and glucose in mice blood serum were determined by conventional methods. Total protein was determined by a biuret method, total cholesterol--by like method, glucose--by the glucose-oxidase method.
Mouse blood was obtained after rapid decapitation. Tested material was sampled at the same time of the day and on the same season.
Blood for serum was sampled into centrifuge test tubes, put into the thermostat for 30-40 minutes; the clot was outlined by a needle, then it was put into a refrigerator for 1 hour+4° C. After cooling it was centrifuged at 3000 RPM during 10-15 minutes. Serum with no signs of hemolysis was sampled into a clean tube. All quantitative indices of the blood biochemical characteristics were obtained by spectrophotometric measurements. Calibration curves to determine total protein and cholesterol were constructed in advance.

**Q.** For `CCSC(=N)N` [S-ethylisothiouronium diethylphosphate], which Body mass (1st day) is on record?
**A.** 23.8 ± 0.1 g

**Q.** What about the Glucose (1st day) of the same compound?
**A.** 7.1 ± 1.4 mmol/L

**Q.** What about the Total cholestrol (1st day) of the same compound?
**A.** 4.7 ± 0.9 mmol/L

**Q.** And the Total protein (1st day)?
**A.** 75.6 ± 4.9

**Q.** What about the Body mass (7th day) of the same compound?
**A.** 24.0 ± 0.2 g

**Q.** What about the Glucose (7th day) of the same compound?
**A.** 8.2 ± 1.8 mmol/L

**Q.** And the Total cholestrol (7th day)?
**A.** 5.0 ± 0.6 mmol/L

**Q.** And the Total protein (7th day)?
**A.** 63.5 ± 4.4

**Q.** What about the Body mass (14th day) of the same compound?
**A.** 28.1 ± 0.3 g

**Q.** And the Glucose (14th day)?
**A.** 8.8 ± 1.7 mmol/L

**Q.** And the Total cholestrol (14th day)?
**A.** 3.0 ± 0.36 mmol/L

**Q.** What about the Total protein (14th day) of the same compound?
**A.** 72.4 ± 3.3

**Q.** What about the Body mass (21st day) of the same compound?
**A.** 26.1 ± 0.5 g

**Q.** And the Glucose (21st day)?
**A.** 9.9 ± 1.8 mmol/L

**Q.** What about the Total cholestrol (21st day) of the same compound?
**A.** 4.9 ± 0.42 mmol/L

**Q.** And the Total protein (21st day)?
**A.** 74.9 ± 2.4

**Q.** What about the “Serum biochemistry in words” value (100 mg/kg, chronic experiment) of the same compound?
**A.** fluctuations of the studied parameters do not exceed the limits of physiological fluctuations
